Each structure is given as a SMILES string. Where only a bound is given, the exact number is not on record here.

Assay [1] deals with T1, APOL1 G2 (Homo sapiens, UniProt O14791, DEL388-389).
T1 construct: expressed in transfected cells; host or cells: HEK293/T-REx APOL1 G2 clone #2, doxycycline-inducible
T1 sequence (O14791 with tags, fused parts or gaps DEL388-389): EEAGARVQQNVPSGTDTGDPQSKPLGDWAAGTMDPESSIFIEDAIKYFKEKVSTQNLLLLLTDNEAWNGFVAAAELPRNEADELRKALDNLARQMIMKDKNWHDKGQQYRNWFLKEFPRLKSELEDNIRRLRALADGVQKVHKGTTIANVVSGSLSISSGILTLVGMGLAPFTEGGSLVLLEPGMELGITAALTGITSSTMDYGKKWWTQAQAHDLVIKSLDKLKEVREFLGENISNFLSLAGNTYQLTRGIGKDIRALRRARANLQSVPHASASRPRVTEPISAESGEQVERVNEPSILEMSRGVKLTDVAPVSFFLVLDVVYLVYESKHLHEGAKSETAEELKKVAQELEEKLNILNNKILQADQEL
Description: APOL1 G2 HEK293 rescue of cell death caused by overexpression of APOL1 (CellTiter-Glo). The format is cell-based. To be noted: HEK293/T-REx APOL1 G2 clone #2, doxycycline induction, 17 hours, CellTiter-Glo luminescence; reversal of cell death; geometric mean of at least 2 assay runs. The gist of the method: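 Doxycycline (6 ng/mL)-induced HEK293/T-REx APOL1 G2 clone seeded at 5,000 cells/well with compound in duplicate 8-point 3-fold series (0.5% DMSO), 17 h at 37 °C. CellTiter-Glo luminescence; EC50 from four-parameter logistic fit, geometric mean of ≥2 runs.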
A general note: ATP-based viability assays read luminescence as a measure of living cells.

The target of assay [2] is T1, APOL1 G2. Description: APOL1 G2 FLIPR calcium influx assay (HEK T-REx/GCaMP6f/APOL1 G2 K6.3 cells). Conditions: HEK293 clone expressing GCaMP6f, doxycycline-induced APOL1 G2; prevention of calcium influx; geometric mean of at least 2 assay runs. The format is cell-based. The gist of the method: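 HEK293 clone stably expressing GCaMP6f, APOL1 G2 induced with doxycycline for 6 h; compounds (duplicate 8-point dose response) preincubated 10 min at room temperature in Ca2+-free Tyrode's buffer, pH 7.4. Ca2+ added to 5 mM final, influx read on FLIPR; AC50 is geometric mean of ≥2 runs.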

For orientation: EC50 means the concentration needed to bring the measured effect to its halfway point. Usually AC50 stands for the concentration giving half of the maximal activity seen. As for `CC(=O)N(C)CCS(=O)(=O)c1ccc(OC[C@H]2C[C@@H](C)N(CCc3cccc(C#N)c3)C2)cc1` [Compound 67, N-[2-(4-{[(3S,5R)-1-[2-(3-cyanophenyl)ethyl]-5-methylpyrrolidin-3-yl]methoxy}benzenesulfonyl)ethyl]-N-methylacetamide], the EC50 on APOL1 G2 [1] worked out at 50.3 nM. Also, the AC50 on APOL1 G2 [2] was found to be 337 nM.

For `C[C@@H]1CN(CCc2cccc(C#N)c2)C[C@H]1COc1ccc(S(C)(=O)=NCCS(C)(=O)=O)cc1` (stereo partly drawn) [Compound 68, 3-{2-[(3S,4S)-3-[(4-{[(2-methanesulfonylethyl)imino](methyl)oxo-λ^6-sulfanyl}phenoxy)methyl]-4-methylpyrrolidin-1-yl]ethyl}benzonitrile], the EC50 on APOL1 G2 [1] is 366 nM. Also, the AC50 on APOL1 G2 [2] was found to be 708 nM.

For the compound `CN=S(C)(=O)c1ccc(OC[C@@H]2CN(CCc3cccc(C#N)c3)C[C@H]2C)cn1` (stereo partly drawn) [Compound 71, 3-{2-[(3S,4S)-3-methyl-4-[({6-[methyl(methylimino)oxo-λ^6-sulfanyl]pyridin-3-yl}oxy)methyl]pyrrolidin-1-yl]ethyl}benzonitrile], the EC50 on APOL1 G2 [1] was 287 nM. Moreover, the half-maximal activity concentration (AC50) on APOL1 G2 [2] turned out to be 492 nM.

For `C[C@@H]1CN(CCc2cc(C#N)cc(C#N)c2)C[C@H]1COc1ccc(S(C)(=O)=O)nc1` [Compound 74, 5-{2-[(3S,4S)-3-{[(6-methanesulfonylpyridin-3-yl)oxy]methyl}-4-methylpyrrolidin-1-yl]ethyl}benzene-1,3-dicarbonitrile], the EC50 at APOL1 G2 [1] came out at 665 nM. For the same compound, the AC50 on APOL1 G2 [2] amounted to 479 nM.

`CC(=O)N(C)CCS(=O)(=O)c1ccc(OC[C@@H]2CN(CCc3cc(Cl)cc(C#N)c3)C[C@H]2C)cc1` [Compound 75, N-[2-(4-{[(3S,4S)-1-[2-(3-chloro-5-cyanophenyl)ethyl]-4-methylpyrrolidin-3-yl]methoxy}benzenesulfonyl)ethyl]-N-methylacetamide]: on APOL1 G2 [1], the EC50 was determined as 70.6 nM. Moreover, at APOL1 G2 [2], the AC50 amounted to 419 nM.

Turning to `CC(=O)N(C)CCS(=O)(=O)c1ccc(OC[C@@H]2CN(CCc3cccc(C#N)c3)C[C@H]2C)cc1` [Compound 76, N-[2-(4-{[(3S,4S)-1-[2-(3-cyanophenyl)ethyl]-4-methylpyrrolidin-3-yl]methoxy}benzenesulfonyl)ethyl]-N-methylacetamide], the concentration for a half-maximal effect (EC50) at APOL1 G2 [1] was 222 nM. Also, the half-maximal activity concentration (AC50) on APOL1 G2 [2] worked out at 250 nM.

For `C[C@@H]1CN(CCc2cc(Cl)cc(C#N)c2)C[C@H]1COc1ccc(C2(S(C)(=O)=O)CC2)cc1` [Compound 77, 3-chloro-5-{2-[(3S,4S)-3-{[4-(1-methanesulfonylcyclopropyl)phenoxy]methyl}-4-methylpyrrolidin-1-yl]ethyl}benzonitrile], the EC50 on APOL1 G2 [1] is 176 nM. Also, the AC50 on APOL1 G2 [2] was determined as 189 nM.

`C[C@@H]1CN(CCc2cc(Cl)cc(C#N)c2)C[C@H]1COc1ccc(C2(S(C)(=O)=O)COC2)cc1` [Compound 78, 3-chloro-5-{2-[(3S,4S)-3-{[4-(3-methanesulfonyloxetan-3-yl)phenoxy]methyl}-4-methylpyrrolidin-1-yl]ethyl}benzonitrile]: the EC50 on APOL1 G2 [1] was found to be 25.8 nM. For the same compound, the AC50 on APOL1 G2 [2] worked out at 114 nM.

Take `COC(=O)CCCS(=O)(=O)c1ccc(OC[C@@H]2CN(CCc3cc(Cl)cc(C#N)c3)C[C@H]2C)cc1` [Compound 80, methyl 4-(4-{[(3S,4S)-1-[2-(3-chloro-5-cyanophenyl)ethyl]-4-methylpyrrolidin-3-yl]methoxy}benzenesulfonyl)butanoate]: the EC50 on APOL1 G2 [1] was 202 nM. For the same compound, at APOL1 G2 [2], the AC50 was determined as 404 nM.

For `C[C@@H]1CN(CCc2cc(Cl)cc(C#N)c2)C[C@H]1COc1cc(F)c(S(C)(=O)=O)c(F)c1` [Compound 82, 3-chloro-5-{2-[(3S,4S)-3-[(3,5-difluoro-4-methanesulfonylphenoxy)methyl]-4-methylpyrrolidin-1-yl]ethyl}benzonitrile], the concentration for a half-maximal effect (EC50) on APOL1 G2 [1] turned out to be 165 nM. For the same compound, the concentration at half-maximal activity (AC50) at APOL1 G2 [2] came to 370 nM.

For the compound `Cc1cc(OC[C@@H]2CN(CCc3cccc(C#N)c3)C[C@H]2C)ccc1S(C)(=O)=O` [Compound 83, 3-{2-[(3S,4S)-3-[(4-methanesulfonyl-3-methylphenoxy)methyl]-4-methylpyrrolidin-1-yl]ethyl}benzonitrile], the EC50 at APOL1 G2 [1] is 94.3 nM. Besides, the AC50 on APOL1 G2 [2] is 94.6 nM.

As for `Cc1cc(OC[C@@H]2CN(CCc3cc(Cl)cc(C#N)c3)C[C@H]2C)ccc1S(C)(=O)=O` [Compound 84, 3-chloro-5-{2-[(3S,4S)-3-[(4-methanesulfonyl-3-methylphenoxy)methyl]-4-methylpyrrolidin-1-yl]ethyl}benzonitrile], the concentration for a half-maximal effect (EC50) at APOL1 G2 [1] is 28.6 nM. For the same compound, the AC50 at APOL1 G2 [2] amounted to 182 nM.

Regarding `C[C@@H]1CN(CCc2cc(Cl)cc(C#N)c2)C[C@H]1COc1ccc(S(C)(=O)=O)nc1` [Compound 85, 3-chloro-5-{2-[(3S,4S)-3-{[(6-methanesulfonylpyridin-3-yl)oxy]methyl}-4-methylpyrrolidin-1-yl]ethyl}benzonitrile], the EC50 on APOL1 G2 [1] was found to be 186 nM. In addition, the AC50 at APOL1 G2 [2] amounted to 221 nM.

For `C[C@@H]1CN(CCc2cccc(C#N)c2)C[C@H]1COc1ccc(S(C)(=O)=O)c(C#N)c1` [Compound 86, 5-{[(3S,4S)-1-[2-(3-cyanophenyl)ethyl]-4-methylpyrrolidin-3-yl]methoxy}-2-methanesulfonylbenzonitrile], the 50% effective concentration (EC50) at APOL1 G2 [1] is 20.4 nM. The AC50 on APOL1 G2 [2] stood at 117 nM.

As to `C[C@@H]1C[C@H](COc2ccc(S(C)(=O)=O)cc2)CN1C1CCc2c(Cl)cccc2C1` (stereo partly drawn) [Compound 88, (2R,4S)-1-(5-chloro-1,2,3,4-tetrahydronaphthalen-2-yl)-4-[(4-methanesulfonylphenoxy)methyl]-2-methylpyrrolidine], the EC50 on APOL1 G2 [1] came out at 215 nM. The AC50 on APOL1 G2 [2] was 843 nM.

In the case of `C[C@@H]1CN(CC(O)c2cccc(C#N)c2)C[C@H]1COc1ccc(S(C)(=O)=O)nc1` (stereo partly drawn) [Compound 104, 3-{1-hydroxy-2-[(3S,4S)-3-{[(6-methanesulfonylpyridin-3-yl)oxy]methyl}-4-methylpyrrolidin-1-yl]ethyl}benzonitrile], the half-maximal effective concentration (EC50) on APOL1 G2 [1] was 1010 nM. The AC50 on APOL1 G2 [2] was found to be 700 nM.

For `CS(=O)(=O)C1(c2ccc(OC[C@@H]3CN(CCc4cccc(Cl)c4)CCN3)cc2)COC1` [Compound 107, (3S)-1-[2-(3-chlorophenyl)ethyl]-3-{[4-(3-methanesulfonyloxetan-3-yl)phenoxy]methyl}piperazine], the EC50 on APOL1 G2 [1] is 245 nM. The AC50 on APOL1 G2 [2] was less than 86.6 nM.

Consider `CN1CC(S(=O)(=O)c2ccc(OC[C@@H]3CN(CCc4cccc(Cl)c4)CCN3)cc2)C1` [Compound 108, (3S)-1-[2-(3-chlorophenyl)ethyl]-3-({4-[(1-methylazetidin-3-yl)sulfonyl]phenoxy}methyl)piperazine], for which, on APOL1 G2 [1], the EC50 came out at 664 nM. In addition, the AC50 at APOL1 G2 [2] amounted to 337 nM.

In the case of `CC(=O)N1CC(S(=O)(=O)c2ccc(OC[C@@H]3CN(CCc4cccc(Cl)c4)CCN3)cc2)C1` [Compound 109, 1-[3-(4-{[(2S)-4-[2-(3-chlorophenyl)ethyl]piperazin-2-yl]methoxy}benzenesulfonyl)azetidin-1-yl]ethan-1-one], the EC50 at APOL1 G2 [1] came to 224 nM. For the same compound, on APOL1 G2 [2], the AC50 is 746 nM.

For `CS(=O)(=O)C1(c2ccc(OC[C@@H]3CN(CCc4cc(Cl)cc(C#N)c4)CCN3)cc2)CC1` [Compound 110, 3-chloro-5-{2-[(3S)-3-{[4-(1-methanesulfonylcyclopropyl)phenoxy]methyl}piperazin-1-yl]ethyl}benzonitrile], the EC50 on APOL1 G2 [1] was 93.2 nM. For the same compound, the AC50 at APOL1 G2 [2] was 140 nM.

For the origin of these results see US20260055083A1, “APOL1 INHIBITORS AND METHODS OF USE” (Maze Therapeutics, Inc., priority 2022, published 2026).
